Reference: patent US20240199625A1, “BICYCLIC HETEROCYCLIC FGFR4 INHIBITOR, PHARMACEUTICAL COMPOSITION AND PREPARATION COMPRISING SAME, AND APPLICATION THEREOF” (Hangzhou Apeloa Medicine Research Institute Co., Ltd., priority 2021, published 2024)
Where two headings read alike, the source gives them in different places.

Assays:
[1] = test system: human hepatoma cells Hep3B; test: Cell proliferation test (CELL TITER-GLO); assay type: cell-based; details: 3 days incubation, CTG, read-out: IC50 Value of Compound for Hep3B Cells
Description: The effect of the compounds of the present invention on the proliferation of human hepatoma cells Hep3B is evaluated by an in vitro cell test. The method used in the test was CELL TITER-GLO (CTG).
Cell plating: Take Hep3B cells in the logarithmic growth phase, digest, centrifuge at 1,000 rpm for 5 min at room temperature and collect, resuspend with EMEM medium of 10% FBS and count, and inoculate into a 384-well microplate (#3765) at a density of 800 cells/well, 20 μL in each.
Compound preparation: Dissolve the compound in DMSO to prepare a stock solution at a concentration of 10 mM, dilute the sample compound stock solution to 2 mM with DMSO (6 μL of the stock solution plus 24 μL of DMSO) as the starting concentration, and dilute the control compound stock solution to 200 μM with DMSO (2 μL of the stock solution plus 98 μL of DMSO) as the starting concentration; dilute the compound 9 times with DMSO in gradient by 3 folds, and then dilute the compound to 40 times the final concentration dose with cell culture medium (2 μL of the compound plus 78 μL of […]).
Cell dosing: Add 5 μL (5×) of the compound to the corresponding wells, make sure the final concentrations of sample compounds are respectively 10000 nM, 3333 nM, 1111 nM, 370.37 nM, 123.46 nM, 41.15 nM, 13.72 nM, 4.57 nM, 1.52 nM, 0.50 nM, take 0.5% DMSO as the negative control, and incubate the microplate at 37° C. in 5% C02 for 3 days.
CTG detection: After 3 days of incubation, add 5 μL of Cell Titer-Glo® reagent per well, incubate on a shaker at 300 rpm for 60 min protected from light at room temperature, read the luminescence signals with microplate reader Spark 10M, and calculate the semi-inhibitory concentration of the compound on cell proliferation, that is, the IC50 value, with the analysis software, as shown in Table 2.

tyrosine kinase FGFR4 = tyrosine kinase FGFR4 (Homo sapiens (Human), UniProt P22455); test: In vitro kinase test (HTRF), FGFR4; assay type: biochemical; details: for IC50: HTRF, 60 min preincubation, 40 min reaction at 37° C.; for FGFR1 IC50 / FGFR4 IC50 ratio (FGFR4 selectivity): ratio of the FGFR1 and FGFR4 IC50 values
Chain of tyrosine kinase FGFR4 (P22455 22-802): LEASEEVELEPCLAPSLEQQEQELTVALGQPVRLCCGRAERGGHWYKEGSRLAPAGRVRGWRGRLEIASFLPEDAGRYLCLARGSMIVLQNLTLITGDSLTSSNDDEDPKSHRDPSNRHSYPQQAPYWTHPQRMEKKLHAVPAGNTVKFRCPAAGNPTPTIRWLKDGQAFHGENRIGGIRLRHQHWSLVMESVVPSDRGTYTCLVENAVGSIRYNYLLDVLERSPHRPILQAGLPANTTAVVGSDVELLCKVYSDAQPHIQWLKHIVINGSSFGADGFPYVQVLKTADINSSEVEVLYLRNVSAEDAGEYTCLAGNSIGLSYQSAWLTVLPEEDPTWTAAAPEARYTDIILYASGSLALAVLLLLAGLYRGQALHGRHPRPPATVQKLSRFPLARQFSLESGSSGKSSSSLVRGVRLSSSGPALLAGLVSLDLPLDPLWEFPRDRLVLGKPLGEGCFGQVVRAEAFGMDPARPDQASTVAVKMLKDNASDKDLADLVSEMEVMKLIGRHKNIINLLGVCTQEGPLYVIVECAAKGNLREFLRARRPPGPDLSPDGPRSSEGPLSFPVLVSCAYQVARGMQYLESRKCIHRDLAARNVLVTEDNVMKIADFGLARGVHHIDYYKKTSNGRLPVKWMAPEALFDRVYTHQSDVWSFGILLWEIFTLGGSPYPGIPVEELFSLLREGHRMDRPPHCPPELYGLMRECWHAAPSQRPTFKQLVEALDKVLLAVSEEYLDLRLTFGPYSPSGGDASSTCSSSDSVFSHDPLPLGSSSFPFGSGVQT
Description: (§1) The effect of compounds of the present invention on tyrosine kinase FGFR1 and FGFR4 activity is evaluated by an in vitro kinase test. The method used in the test was homogeneous time-resolved fluorescence (HTRF).
(§2) Compound preparation: Add 45 μL of DMSO to 5 μL of stock solution at a concentration of 10 mM to prepare the solution LY2874455 at 1000 µM; then add 12 μL of the compound at 1000 μM to 88 µL of DMSO to prepare the solution LY2874455 at 120 μM as the starting concentration; add 48 μL of DMSO to 2 μL of stock solution at a concentration of 10 mM to prepare the solution BLU554 at 400 μM as the starting concentration; add 15 μL of DMSO to 10 μL of sample compound stock solution at a concentration of 10 mM to prepare a sample compound solution at 4 mM as the starting concentration; transfer the compound solution to the target plate with the dispenser Echo.
(§3) Kinase reaction: Add 5 μL of kinase solution to each well, incubate the compound and kinase at room temperature for 60 min, add 5 μL of substrate and ATP mixture to start reacting at 37° C. for a certain period of time (30 min for FGFR1 kinase test, and 40 min for FGFR4 kinase test), and then add 10 μL of X1665 and antibody detection reagent mixture to stop; after 60 min of incubation at room temperature, read the TR-FRET signal with microplate reader SPARK 10M at the transmit wavelength of 665 nm/612 nM. Test enzyme activity at 10 concentrations for each compound, and calculate the IC50 value of the compound with the data with the analysis software, as shown in Table 1.

tyrosine kinase FGFR1 = tyrosine kinase FGFR1 (Homo sapiens (Human), UniProt P11362); test: In vitro kinase test (HTRF), FGFR1; assay type: biochemical; details: 60 min preincubation, 30 min reaction at 37° C.
Chain of tyrosine kinase FGFR1 (P11362 22-822): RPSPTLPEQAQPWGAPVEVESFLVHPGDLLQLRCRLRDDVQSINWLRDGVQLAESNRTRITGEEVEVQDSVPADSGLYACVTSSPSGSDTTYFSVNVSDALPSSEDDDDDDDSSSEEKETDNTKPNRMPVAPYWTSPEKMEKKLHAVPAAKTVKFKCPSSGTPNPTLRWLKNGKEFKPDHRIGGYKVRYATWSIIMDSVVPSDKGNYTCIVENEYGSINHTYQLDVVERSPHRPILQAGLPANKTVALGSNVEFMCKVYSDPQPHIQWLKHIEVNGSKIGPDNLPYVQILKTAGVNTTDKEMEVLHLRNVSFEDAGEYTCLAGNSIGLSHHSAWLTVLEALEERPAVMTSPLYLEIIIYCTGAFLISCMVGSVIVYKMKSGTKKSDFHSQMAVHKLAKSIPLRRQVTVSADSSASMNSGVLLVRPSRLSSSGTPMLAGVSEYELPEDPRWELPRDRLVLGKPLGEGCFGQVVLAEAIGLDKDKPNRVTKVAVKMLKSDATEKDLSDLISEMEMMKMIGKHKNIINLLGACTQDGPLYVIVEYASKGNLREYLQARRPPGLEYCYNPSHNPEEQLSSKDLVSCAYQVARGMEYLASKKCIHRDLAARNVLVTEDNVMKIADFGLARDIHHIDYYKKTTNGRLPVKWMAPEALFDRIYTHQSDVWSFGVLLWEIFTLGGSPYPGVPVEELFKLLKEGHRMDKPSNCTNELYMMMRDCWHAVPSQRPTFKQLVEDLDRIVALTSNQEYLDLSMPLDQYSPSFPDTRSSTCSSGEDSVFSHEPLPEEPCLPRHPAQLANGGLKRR
Description: as §1, §2, §3

| IC50 ([1]; Homo sapiens, Hep3B, 72 h) | IC50 (tyrosine kinase FGFR4) | FGFR1 IC50 / FGFR4 IC50 ratio (FGFR4 selectivity) (tyrosine kinase FGFR4) | IC50 (tyrosine kinase FGFR1) | Compound | IC50 [1] |
| --- | --- | --- | --- | --- | --- |
| 14 nM | 0.67 nM | 1468 | 984 nM | C=CC(=O)Nc1cc(N2CCOCC2)ccc1Nc1cc2c(cn1)CN(c1c(F)c(OC)nc(OC)c1F)C(=O)C21CC1 [Compound 10, N-(2-((2′-(3,5-difluoro-2,6-dimethoxypyridine-4-yl)-3′-oxo-2′,3′-dihydro-1′H-spiro[cyclopropane-1,4′-[2,7]naphthyridine]-6′-yl)-amino)-5-morpholinophenyl) acrylamide] | – |
| 38.1 nM | 2.6 nM | 3817 | > 9930 nM | C=CC(=O)Nc1cc(N2CCOCC2)c(F)cc1Nc1cc2c(cn1)CN(c1c(F)c(OC)nc(OC)c1F)C(=O)C21CC1 [Compound 14, N-(2-((2′-(3,5-difluoro-2,6-dimethoxypyridine-4-yl)-3′-oxo-2′,3′-dihydro-1′H-spiro[cyclopropane-1,4′-[2,7]naphthyridine]-6′-yl)-amino)-4-fluoro-5-morpholinophenyl)acrylamide] | – |
| 56.5 nM | 2.7 nM | 3172 | 8570 nM | C=CC(=O)Nc1cccc(C)c1Nc1cc2c(cn1)CN(c1c(F)c(OC)nc(OC)c1F)C(=O)C21CC1 [Compound 8, N-(2-((2′-(3,5-difluoro-2,6-dimethoxypyridine-4-yl)-3′-oxo-2′,3′-dihydro-1′H-spiro[cyclopropane-1,4′-[2,7]naphthyridine]-6′-yl)amino)-3-methylphenyl)acrylamide] | – |
| – | 0.3 nM | 20 | 6 nM | C=CC(=O)Nc1cc(N2CCC(N3CCOCC3)CC2)ccc1Nc1cc2c(cn1)CN(c1c(F)c(OC)nc(OC)c1F)C(=O)C21CC1 [Compound 5, N-(2-((2′-(3,5-difluoro-2,6-dimethoxypyridine-4-yl)-3′-oxo-2′,3′-dihydro-1′H-spiro[cyclopropane-1,4′-[2,7]naphthyridine]-6′-yl)-amino)-5-(4-morpholinopiperidin-1-yl)phenyl)acrylamide] | – |
| 38.4 nM | 5.98 nM | – | 624 nM | C=CC(=O)N[C@H]1CCOC[C@H]1Nc1ncc2cc(-c3c(Cl)c(OC)cc(OC)c3Cl)ccc2n1 [BLU554, reference compound] | – |

| Compound | IC50 ([1]; Homo sapiens, Hep3B, 72 h) | IC50 (tyrosine kinase FGFR4) | FGFR1 IC50 / FGFR4 IC50 ratio (FGFR4 selectivity) (tyrosine kinase FGFR4) | IC50 (tyrosine kinase FGFR1) | IC50 [1] |
| --- | --- | --- | --- | --- | --- |
| C=CC(=O)Nc1ccccc1Nc1cc2c(cn1)CN(c1c(F)c(OC)nc(OC)c1F)C(=O)C21CC1 [Compound 7, N-(2-((2′-(3,5-difluoro-2,6-dimethoxypyridine-4-yl)-3′-oxo-2′,3′-dihydro-1′H-spiro[cyclopropane-1,4′-[2,7]naphthol]-6′-yl)amino)phenyl)acrylamide] | – | 5.42 nM | 782 | 4240 nM | – |
| C=CC(=O)NCc1cc2c(cn1)CN(c1c(F)c(OC)nc(OC)c1F)C(=O)C21CC1 [Compound 1, N-((2′-(3,5-difluoro-2,6-dimethoxypyridine-4-yl)-3′-oxo-2′,3′-dihydro-1′H-spiro[cyclopropane-1,4′-[2,7]naphthine]-6′-yl)methyl) acrylamide] | – | 8.57 nM | 426 | 3660 nM | 52.6 nM |
| C=CC(=O)Nc1cc(N2CCOCC2C)ccc1Nc1cc2c(cn1)CN(c1c(F)c(OC)nc(OC)c1F)C(=O)C21CC1 (centres unmarked) [Compound 15, N-(2-((2′-(3,5-difluoro-2,6-dimethoxypyridine-4-yl)-3′-oxo-2′,3′-dihydro-1′H-spiro[cyclopropane-1,4′-[2,7]naphthyridine]-6′-yl)-amino)-5-(3-methomorpholinyl)phenyl)acrylamide] | – | 0.63 nM | 3617 | 2280 nM | 15.3 nM |
